Reference: patent publication EP4640686A1, “DEGRADER FOR DEGRADING BRD PROTEIN AND PHARMACEUTICAL COMPOSITION CONTAINING SAME” (Innocure Therapeutics, Inc., priority 2022, dated 2024)
Read-outs that look alike come from different tables or passages of the source.

Assays:
Type in all cases: cell-based
RPMI2650 = experiment: Cancer cell antiproliferative activity / cell viability in RPMI2650 cells (72 h treatment)
Method: The human breast cancer cell line [MDA-MB-231] was cultured in RPMI medium with the addition of 10% fetal bovine serum, penicillin [100U/ml], and streptomycin [[…]]. The synthesized compounds were prepared with a 10 mM or 50 mM raw material solution dissolved in DMSO [dimethyl sulfoxide], and were diluted sequentially and treated. [RPMI2650] and [SNU2972] were cultivated under specific conditions.
To observe cell growth inhibition, cells were dispensed in a concentration of 5,000 cells/well in a 96-well plate, and samples prepared at various concentrations were treated for 72 hours. The IC50 value (the concentration of the compound achieving 50% cytostaticism) is the average value of the results of three independent measurements.

BRD4 = BRD4 (Homo sapiens, UniProt O60885); experiment: BRD4 protein degradation by western blotting in RPMI2650 cells (24 h treatment); parameters: To evaluate the resolution of PROTAC for BRD4 expressed in cells; endogenous in cells; host or cells: RPMI2650; conditions: RPM12650, read-out: BRD4 (DC50)
Method: (§1) The synthesized compounds were prepared with a 10 mM or 50 mM raw material solution dissolved in DMSO [dimethyl sulfoxide], and were diluted sequentially and treated. [RPMI2650] and [SNU2972] were cultivated under specific conditions.
(§2) To evaluate the resolution of PROTAC for BRD4 expressed in cells, cells were dispensed in a concentration of 5 X 10^5 cells/well in a 6-well plate, and the sample was treated for 24 hours. […] Protein expression was normalized based on the expression value of β or GAPDH, and protein expression in each sample was measured as % based on 100% of samples treated with 0.1% DMSO vehicle. Protein expression was quantified using Image J program. Change in protein expression volume by compound treatment (DC50: concentration of compounds where 50% protein expression inhibition is achieved) was calculated using the GraphicPad Prism 8.0 software.

BRD4-NUT = target: T1, BRD4-NUT (Homo sapiens, UniProt O60885+Q86Y26); experiment: BRD4-NUT protein degradation by western blotting in RPMI2650 cells (24 h treatment); conditions: RPM12650, read-out: BRD4-NUT (DC50)
T1 construct: endogenous in cells; host or cells: RPMI2650
Method: as §1, §2

[1] = Homo sapiens, RPMI-2650, RPM12650, read-out: Cell Viatility (IC50)
[2] = RPM12650, read-out: Cell Viatility (IC50)
[3] = Homo sapiens, RPMI-2650, 72 h, RPM12650, read-out: Cell Viatility (IC50)

SMILES | IC50 (RPMI2650; [1]) [nM] | DC50 (BRD4) [nM] | DC50 (BRD4-NUT) [nM] | IC50 (RPMI2650; [2]) [nM] | IC50 (RPMI2650; [3]) [nM]
CC[C@@H]1c2nnc(C)n2-c2cnc(Nc3ccc(C(=O)NCCNc4cccc5cnn(C6CCC(=O)NC6=O)c(=O)c45)cc3OC)nc2N1CC1CCCCC1 (stereo partly drawn) [ICT-0001558, 4-(((R)-5-(cyclohexylmethyl)-4-ethyl-1-methyl-4,5-dihydro-[1,2,4]triazolo[4,3-f]pteridine-7-yl)amino)N-(2-((3-(2,6-dioxopiperidin-3-yl)4-oxo-3,4-dihydroptalazine-5-yl)amino)ethyl)-3-methoxybenzamide] | > 1000 | < 100 | < 100 | – | –
CCC1c2nnc(C)n2-c2cnc(Nc3ccc(C(=O)NC4CCN(CCN5CCN(c6ccc7c(=O)n(C8CCC(=O)NC8=O)nc(C)c7c6)CC5)CC4)cc3OC)nc2N1CC1CCCCC1 [ICT-0001560, 4-{[(4S)-5-(cyclohexylmethyl)-4-ethyl-1-methyl-4H,5H-[1,2,4]triazolo[4,3-f]pteridine-7-yl]amino}-N-[1-(2-{4-[2-(2,6-dioxopiperidine-3-yl)-4-methyl-1-oxo-1,2-dihydroptalazine-6-yl]piperazine-1-yl}ethyl)piperidine-4-yl]-3-methoxybenzamide] | > 1000 | < 100 | < 100 | – | –
CCC1c2nnc(C)n2-c2cnc(Nc3ccc(C(=O)NC4CCN(CCN5CCN(c6ccc(NC7CCC(=O)NC7=O)cc6F)CC5)CC4)cc3OC)nc2N1CC1CCCCC1 [ICT-0001561, 4-{[(4S)-5-(cyclohexylmethyl)-4-ethyl-1-methyl-4H,5H-[1,2,4]triazolo[4,3-f]pteridine-7-yl]amino}-N-{1-[2-(4-{4-[(2,6-dioxopiperidin-3-yl)amino]-2-fluorophenyl}piperazine-1-il)ethyl]piperidine-4-yl}-3-methoxybenzamide] | > 1000 | < 100 | < 100 | – | –
CC[C@H]1c2nnc(C)n2-c2cnc(Nc3ccc(C(=O)NC4CCN(CCC5CCN(c6ccc(NC7CCC(=O)NC7=O)cc6F)CC5)CC4)cc3OC)nc2N1CC1CCCCC1 (stereo partly drawn) [ICT-0001562, 4-{[(4S)-5-(cyclohexylmethyl)-4-ethyl-1-methyl-4H,5H-[1,2,4]triazolo[4,3-f]pteridine-7-yl]amino}-N-{1-[2-(1-{4-[(2,6-dioxopiperidin-3-yl)amino]-2-fluorophenyl}piperidine-4-yl)ethyl]piperidine-4-yl}-3-methoxybenzamide] | – | > 1000 | > 1000 | 100 to 1000 | –
CC[C@@H]1c2nnc(C)n2-c2cnc(Nc3ccc(C(=O)NC4CCN(C(=O)CN5CCN(c6ccc7c(=O)n(C8CCC(=O)NC8=O)nc(C)c7c6)CC5)CC4)cc3OC)nc2N1CC1CCCCC1 (stereo partly drawn) [ICT-0001563] | > 1000 | < 100 | < 100 | – | –
CC[C@H]1c2nnc(C)n2-c2cnc(Nc3ccc(C(=O)NC4CCN(CCC5CCN(c6ccc(NC7CCC(=O)NC7=O)cc6F)CC5)CC4)cc3OC)nc2N1CC1CCCCC1 (stereo partly drawn) [ICT-0001564, 4-{[(4S)-5-(cyclohexylmethyl)-4-ethyl-1-methyl-4H,5H-[1,2,4]triazolo[4,3-f]pteridine-7-yl]amino}-N-{1-[2-(1-{4-[(2,6-dioxopiperidin-3-yl)amino]-2-fluorophenyl}piperidine-4-yl)ethyl]piperidine-4-yl}-3-methoxybenzamide] | – | < 100 | > 1000 | > 1000 | –
CC[C@@H]1c2nnc(C)n2-c2cnc(Nc3ccc(C(=O)NC4CCN(c5ccc(NC6CCC(=O)NC6=O)cc5F)CC4)cc3OC)nc2N1CC1CCCCC1 (stereo partly drawn) [ICT-0001566, 4-{[(4R)-5-(cyclohexylmethyl)-4-ethyl-1-methyl-4H,5H-[1,2,4]triazolo[4,3-f]pteridine-7-yl]amino}-N-(1-{4-[(2,6-dioxopiperidine-3-yl)amino]-2-fluorophenyl}piperidine-4-yl)-3-methoxybenzamide] | – | < 100 | < 100 | – | > 1000
CC[C@@H]1c2nnc(C)n2-c2cnc(Nc3ccc(C(=O)NC4CCN(c5ccc6c(=O)n(C7CCC(=O)NC7=O)nc(C)c6c5)CC4)cc3OC)nc2N1CC1CCCCC1 (stereo partly drawn) [ICT-0001567, 4-{[(4R)-5-(cyclohexylmethyl)-4-ethyl-1-methyl-4H,5H-[1,2,4]triazolo[4,3-f]pteridine-7-yl]amino}-N-{1-[2-(2,6-dioxopiperidine-3-yl)-4-methyl-1-oxo-1,2-dihydroptalazine-6-yl]piperidine-4-yl}-3-methoxybenzamide] | > 1000 | > 1000 | > 1000 | – | –
CC[C@@H]1c2nnc(C)n2-c2cnc(Nc3ccc(C(=O)NC4CCN(CCCN5CCN(c6ccc7c(=O)n(C8CCC(=O)NC8=O)nc(C)c7c6)CC5)CC4)cc3OC)nc2N1CC1CCCCC1 (stereo partly drawn) [ICT-0001568, 4-{[(4R)-5-(cyclohexylmethyl)-4-ethyl-1-methyl-4H,5H-[1,2,4]triazolo[4,3-f]phteridine-7-yl]amino}-N-[1-(3-{4-[2-(2,6-dioxopiperidin-3-yl)-4-methyl-1-oxo-1,2-dihydroptalazine-6-yl}piperazine-1-il}piperidine-4-yl]piperidine-4-yl]-3-methoxybenzamide] | > 1000 | < 100 | > 1000 | – | –
CC[C@@H]1c2nnc(C)n2-c2cnc(Nc3ccc(C(=O)NC4CCN(Cc5ccc(NC6CCC(=O)NC6=O)cc5)CC4)cc3OC)nc2N1CC1CCCCC1 (stereo partly drawn) [ICT-0001569, 4-{[(4R)-5-(cyclohexylmethyl)-4-ethyl-1-methyl-4H,5H-[1,2,4]triazolo[4,3-f]pteridine-7-yl]amino}-N-[1-({4-[(2,6-dioxopiperidin-3-yl)amino]phenyl}methyl)piperidine-4-yl]-3-methoxybenzamide] | – | > 1000 | > 1000 | – | > 1000
CC[C@@H]1c2nnc(C)n2-c2cnc(Nc3ccc(C(=O)NC4CCN(CCOCCOc5ccc(NC6CCC(=O)NC6=O)cc5F)CC4)cc3OC)nc2N1CC1CCCCC1 (stereo partly drawn) [ICT-0001570, 4-{[(4R)-5-(cyclohexylmethyl)-4-ethyl-1-methyl-4H,5H-[1,2,4]triazolo[4,3-f]pteridine-7-yl]amino}-N-{1-[2-(2-{4-[(2,6-dioxopiperidin-3-yl)amino]-2-fluorophenoxy}ethoxy)ethyl]piperidine-4-yl}-3-methoxybenzamide] | – | > 1000 | > 1000 | – | > 1000
CC[C@@H]1c2nnc(C)n2-c2cnc(Nc3ccc(C(=O)NC4CCN(C(=O)CCCCN5CCN(c6ccc(NC7CCC(=O)NC7=O)cc6F)CC5)CC4)cc3OC)nc2N1CC1CCCCC1 (stereo partly drawn) [ICT-0001571, 4-{[(4R)-5-(cyclohexylmethyl)-4-ethyl-1-methyl-4H,5H-[1,2,4]triazolo[4,3-f]pteridine-7-yl]amino}-N-{1-[5-(4-{4-[(2,6-dioxopiperidin-3-yl)amino]-2-fluorophenyl}piperazine-1-yl)pentanoyl]piperidine-4-yl}-3-methoxybenzamide] | – | > 1000 | > 1000 | – | > 1000
CC[C@@H]1c2nnc(C)n2-c2cnc(Nc3ccc(C(=O)NC4CCN(CCCN5CCN(c6ccc(NC7CCC(=O)NC7=O)cc6F)CC5)CC4)cc3OC)nc2N1CC1CCCCC1 (stereo partly drawn) [ICT-0001572, 4-{[(4R)-5-(cyclohexylmethyl)-4-ethyl-1-methyl-4H,5H-[1,2,4]triazolo[4,3-f]pteridine-7-yl]amino}-N-{1-[3-(4-{4-[(2,6-dioxopiperidin-3-yl)amino]-2-fluorophenyl}piperazine-1-yl)propyl]piperidine-4-yl}-3-methoxybenzamide] | – | > 1000 | > 1000 | – | > 1000
CC[C@@H]1c2nnc(C)n2-c2cnc(Nc3ccc(C(=O)N4CCN(c5ccc6c(=O)n(C7CCC(=O)NC7=O)nc(C)c6c5)CC4)cc3OC)nc2N1CC1CCCCC1 (stereo partly drawn) [ICT-0001576, 3-{6-[4-(4-{[(4R)-5-(cyclohexylmethyl)-4-ethyl-1-methyl-4H,5H-[1,2,4]triazolo[4,3-f]pteridine-7-yl]amino}-3-methoxybenzoyl)piperazine-1-yl]-4-methyl-1-oxo-1,2-dihydroptalazine-2-yl}piperidine-2,6-dione] | > 1000 | < 100 | < 100 | – | –
CC[C@@H]1c2nnc(C)n2-c2cnc(Nc3ccc(C(=O)N4CCN(c5ccc6c(=O)n(C7CCC(=O)NC7=O)ncc6c5)CC4)cc3OC)nc2N1CC1CCCCC1 (stereo partly drawn) [ICT-0001577] | > 1000 | > 1000 | > 1000 | – | –
CC[C@@H]1c2nnc(C)n2-c2cnc(Nc3ccc(C(=O)NC4CCN(C(=O)CCN5CCN(c6ccc(NC7CCC(=O)NC7=O)cc6F)CC5)CC4)cc3OC)nc2N1CC1CCCCC1 (stereo partly drawn) [ICT-0001578, 4-{[(4R)-5-(cyclohexylmethyl)-4-ethyl-1-methyl-4H,5H-[1,2,4]triazolo[4,3-f]pteridine-7-yl]amino}-N-{1-[3-(4-{4-[(2,6-dioxopiperidin-3-yl)amino]-2-fluorophenyl}piperazine-1-yl)propanoyl]piperidine-4-yl}-3-methoxybenzamide] | – | > 1000 | > 1000 | – | 100 to 1000
